Each structure is given as a SMILES string. Read-outs that look alike come from different tables or passages of the source.

In this experiment the target is T1, SIRT1 (Homo sapiens, UniProt Q96EB6).
T1 sequence (Q96EB6 1-747): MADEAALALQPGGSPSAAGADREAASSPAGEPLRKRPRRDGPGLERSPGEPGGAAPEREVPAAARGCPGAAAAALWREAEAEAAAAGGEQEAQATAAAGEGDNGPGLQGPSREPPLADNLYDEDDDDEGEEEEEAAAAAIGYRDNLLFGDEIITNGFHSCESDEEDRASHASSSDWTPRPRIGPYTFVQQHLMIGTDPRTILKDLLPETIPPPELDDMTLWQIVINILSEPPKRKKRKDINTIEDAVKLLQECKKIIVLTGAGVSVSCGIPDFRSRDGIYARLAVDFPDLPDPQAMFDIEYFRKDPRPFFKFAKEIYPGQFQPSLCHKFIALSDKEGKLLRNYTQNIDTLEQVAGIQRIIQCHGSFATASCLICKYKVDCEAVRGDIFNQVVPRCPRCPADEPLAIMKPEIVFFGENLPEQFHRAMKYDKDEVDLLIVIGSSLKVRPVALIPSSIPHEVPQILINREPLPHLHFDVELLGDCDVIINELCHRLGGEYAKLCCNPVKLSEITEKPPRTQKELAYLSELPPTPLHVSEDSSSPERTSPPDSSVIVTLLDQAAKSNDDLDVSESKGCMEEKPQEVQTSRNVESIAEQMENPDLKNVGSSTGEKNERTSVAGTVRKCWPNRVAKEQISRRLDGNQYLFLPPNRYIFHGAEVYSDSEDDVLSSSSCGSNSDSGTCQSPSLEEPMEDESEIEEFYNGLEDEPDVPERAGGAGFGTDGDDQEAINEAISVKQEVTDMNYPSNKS
The experiment in a line: Mass spectrometry based SIRT1 deacetylase activation assay (acetylated p53-derived peptide substrate). It is filed as biochemical.

Setting [1] is: 0.5 μM peptide substrate, 120 μM βNAD+, 10 nM SIRT1, 25 minutes at 25° C.
Setting [2] is: 0.5 μM peptide substrate, 120 μM βNAD+, 10 nM SIRT1, 25 min at 25° C.
The mark [3] stands for this setting: 0.5 μM peptide substrate, 120 μM βNAD+, 10 nM SIRT1, 25 min at 25° C., read-out: EC1.5.

As for `O=C(Nc1nccs1)c1cncc2[nH]c(-c3cc(F)ccc3C(F)(F)F)nc12` [Compound 653], under setting [1], the EC1.5 result is “B (EC1.5 1-25 uM)” and the “Fold Act. (percent maximum fold activation)” value is listed as “A (Fold activation >200%)”.
Consider `O=C(Nc1cccc2[nH]c(-c3ccc(Cl)cc3C(F)(F)F)nc12)c1cnccn1` [Compound 419], for which the “Fold Act. (percent maximum fold activation)” value under setting [2] is on record as “A (Fold activation >200%)”. Also, under setting [3], the EC1.5 is 1000 to 25000 nM.
For `Cc1cnc(NC(=O)c2cccc3[nH]c(-c4ccc(N5CCOCC5)cc4C(F)(F)F)nc23)s1` [Compound 549], in that order: “A (Fold activation >200%)” and under 1000 nM.
As for `O=C(Nc1cccnn1)c1cccc2[nH]c(-c3ccccc3OCCN3CCOCC3)nc12` [Compound 488], the “Fold Act. (percent maximum fold activation)” value under setting [2] is “B (Fold Activation <200%)”. Also, the EC1.5 under setting [3] lay in the range of 1000 to 25000 nM.
In the case of `O=C(Nc1cccc[n+]1[O-])c1cccc2[nH]c(-c3ccccc3C(F)(F)F)nc12` [Compound 329, 2-(2-(2-(trifluoromethyl)phenyl)-1H-benzo[d]imidazole-4-carboxamido)pyridine 1-oxide], the EC1.5 result is “B (EC1.5 1-25 uM)” and the “Fold Act. (percent maximum fold activation)” value is “A (Fold activation >200%)”.
On to `O=C(Nc1ccccn1)c1cccc2[nH]c(-c3cc(F)cc(F)c3OCCN3CCOCC3)nc12` [Compound 586], for which, under setting [2], the “Fold Act. (percent maximum fold activation)” value is reported as “B (Fold Activation <200%)”. Also, the EC1.5 under setting [3] lay in the range of 1000 to 25000 nM.
Turning to `O=C(Nc1nccs1)c1cccc2[nH]c(-c3ccoc3)nc12` [Compound 229], the EC1.5 entry is reported as “B (EC1.5 1-25 uM)” and the “Fold Act. (percent maximum fold activation)” value is on record as “A (Fold activation >200%)”.
For `O=C(Nc1cccc(OC[C@@H](O)CO)c1)c1cncc2[nH]c(-c3ccc(Cl)cc3C(F)(F)F)nc12` [Compound 738], under setting [1], the EC1.5 entry is reported as “A (EC1.5<1.0 uM)” and the “Fold Act. (percent maximum fold activation)” value is on record as “A (Fold activation >200%)”.
For `CCCN1CCCc2ccc(-c3nc4c(C(=O)Nc5nccs5)cccc4[nH]3)cc21` [Compound 425], the “Fold Act. (percent maximum fold activation)” value under setting [2] is recorded as “A (Fold activation >200%)”. Besides, the EC1.5 under setting [3] fell in the range of 1000 to 25000 nM.
On to `O=C(Nc1ccccn1)c1cccc2[nH]c(-c3cc(F)ccc3C(F)(F)F)nc12` [Compound 323], for which the EC1.5 result is reported as “A (EC1.5<1.0 uM)” and the “Fold Act. (percent maximum fold activation)” value was “A (Fold activation >200%)”.
For `O=C(Nc1ccccn1)c1cccc2[nH]c(-c3ccc(N4CC[C@@H](F)C4)cc3C(F)(F)F)nc12` [Compound 609], under setting [1], the EC1.5 result is on record as “B (EC1.5 1-25 uM)” and the “Fold Act. (percent maximum fold activation)” value is “A (Fold activation >200%)”.
On to `O=C(Nc1nc(-c2ccccc2)cs1)c1cccc2[nH]c(-c3cccc(C(F)(F)F)c3)nc12` [Compound 283], for which the EC1.5 entry is listed as “B (EC1.5 1-25 uM)” and the “Fold Act. (percent maximum fold activation)” value is reported as “A (Fold activation >200%)”.
Take `O=C(Nc1cccnn1)c1cc(N2CCOCC2)cc2[nH]c(-c3cc(F)ccc3C(F)(F)F)nc12` [Compound 647]: under setting [1], the EC1.5 entry is reported as “A (EC1.5<1.0 uM)” and the “Fold Act. (percent maximum fold activation)” value is “A (Fold activation >200%)”.
Take `O=C(Nc1cccnc1Cl)c1cccc2[nH]c(-c3cccc(C(F)(F)F)c3)nc12` [Compound 286]: the EC1.5 entry is “B (EC1.5 1-25 uM)” and the “Fold Act. (percent maximum fold activation)” value is recorded as “A (Fold activation >200%)”.
As for `O=C(NC1CCOCC1)c1cccc2[nH]c(-c3cc(F)ccc3C(F)(F)F)nc12` [Compound 437], the “Fold Act. (percent maximum fold activation)” value under setting [2] is given as “B (Fold Activation <200%)”. Moreover, the EC1.5 under setting [3] is over 25000 nM.
For the compound `O=C(Nc1cccc(CN2CCOCC2)n1)c1cccc2[nH]c(-c3ccc(Cl)cc3C(F)F)nc12` [Compound 819], under setting [1], the EC1.5 result is on record as “A (EC1.5<1.0 uM)” and the “Fold Act. (percent maximum fold activation)” value is recorded as “A (Fold activation >200%)”.
`CC1(C)Cc2cccc(-c3nc4c(C(=O)Nc5cccnc5)cccc4[nH]3)c2O1` [Compound 401]: the “Fold Act. (percent maximum fold activation)” value under setting [2] was “A (Fold activation >200%)”. Moreover, the EC1.5 under setting [3] lay in the range of 1000 to 25000 nM.
On to `O=C(Nc1cccnn1)c1cc(N2CCOCC2)cc2[nH]c(-c3cc(F)ccc3C(F)F)nc12` [Compound 770], for which, under setting [1], the EC1.5 entry was “A (EC1.5<1.0 uM)” and the “Fold Act. (percent maximum fold activation)” value is on record as “A (Fold activation >200%)”.
For `O=C(Nc1nccs1)c1cc(N2CCOCC2)cc2[nH]c(-c3ccccc3C(F)F)nc12` [Compound 734], in that order: “A (EC1.5<1.0 uM)” and “A (Fold activation >200%)”.
Take `O=C(Nc1cccc(CN2CCOCC2)n1)c1cccc2[nH]c(-c3ccccc3C(F)F)nc12` [Compound 817]: under setting [1], the EC1.5 result is given as “A (EC1.5<1.0 uM)” and the “Fold Act. (percent maximum fold activation)” value was “A (Fold activation >200%)”.
As for `CC1(C)Cc2cc(-c3nc4c(C(=O)Nc5nccs5)cccc4[nH]3)ccc2O1` [Compound 445], under setting [2], the “Fold Act. (percent maximum fold activation)” value was “A (Fold activation >200%)”. Also, under setting [3], the EC1.5 was 1000 to 25000 nM.
Regarding `Cc1cnc(NC(=O)c2cccc3[nH]c(-c4ccc(OC[C@@H](O)CO)cc4C(F)(F)F)nc23)s1` [Compound 746], under setting [1], the EC1.5 entry is “A (EC1.5<1.0 uM)” and the “Fold Act. (percent maximum fold activation)” value is given as “A (Fold activation >200%)”.
For `O=C(Nc1ccccn1)c1cncc2nc(-c3ccc(OC[C@H](O)CO)cc3C(F)F)[nH]c12` [Compound 810] the same measures were “A (EC1.5<1.0 uM)” and “A (Fold activation >200%)”.
As for `CC(C)(C)c1cccc(-c2nc3c(C(=O)Nc4ccccn4)cccc3[nH]2)c1OCCN1CCOCC1` [Compound 588], under setting [2], the “Fold Act. (percent maximum fold activation)” value was “B (Fold Activation <200%)”. Besides, under setting [3], the EC1.5 lay in the range of 1000 to 25000 nM.
`O=C(Nc1nccs1)c1cccc2[nH]c(-c3ccccc3C(F)F)nc12` [Compound 514]: the “Fold Act. (percent maximum fold activation)” value under setting [2] is reported as “A (Fold activation >200%)”. Moreover, the EC1.5 under setting [3] was under 1000 nM.
For `O=C1COc2ccc(-c3nc4c(C(=O)Nc5ccccn5)cccc4[nH]3)cc2N1` [Compound 565], in that order: “B (Fold Activation <200%)” and 1000 to 25000 nM.
In the case of `O=C(Nc1cccnc1)c1cncc2[nH]c(-c3ccc(F)cc3C(F)(F)F)nc12` [Compound 695], under setting [1], the EC1.5 entry was “A (EC1.5<1.0 uM)” and the “Fold Act. (percent maximum fold activation)” value is “A (Fold activation >200%)”.
For `O=C(Nc1cccnc1)c1cccc2[nH]c(-c3cccc(N4CCOCC4)n3)nc12` [Compound 389], the EC1.5 entry is recorded as “B (EC1.5 1-25 uM)” and the “Fold Act. (percent maximum fold activation)” value is reported as “A (Fold activation >200%)”.
For `O=C(Nc1cccnn1)c1cccc2[nH]c(-c3ccc(N4CCOCC4)cc3C(F)F)nc12` [Compound 555], under setting [2], the “Fold Act. (percent maximum fold activation)” value is given as “A (Fold activation >200%)”. Moreover, the EC1.5 under setting [3] was under 1000 nM.
For `O=C(Nc1ccccn1)c1cccc2[nH]c(-c3ccc(N4CCOCC4)cc3C(F)(F)F)nc12` [Compound 415] the same measures were “A (Fold activation >200%)” and under 1000 nM.
Consider `O=C(Nc1ccccn1)c1cccc2[nH]c(-c3ccccc3OCCN3CC[C@H](F)C3)nc12` [Compound 510], for which the “Fold Act. (percent maximum fold activation)” value under setting [2] was “B (Fold Activation <200%)”. The EC1.5 under setting [3] is 1000 to 25000 nM.
For the compound `Cc1cc(-c2nc3c(C(=O)Nc4cccc(CN5CCOCC5)n4)cccc3[nH]2)ccn1` [Compound 816, 2-(2-methylpyridin-4-yl)-N-(6-(morpholinomethyl)pyridin-2-yl)-1H-benzo[d]imidazole-4-carboxamide], under setting [1], the EC1.5 result is “A (EC1.5<1.0 uM)” and the “Fold Act. (percent maximum fold activation)” value was “A (Fold activation >200%)”.
Regarding `O=C(Nc1ccc(CN2CCCC2)cc1)c1cccc2[nH]c(-c3ccc(Cl)cc3C(F)(F)F)nc12` [Compound 491], under setting [2], the “Fold Act. (percent maximum fold activation)” value was “A (Fold activation >200%)”. The EC1.5 under setting [3] was under 1000 nM.
Consider `Cc1cc(C)nc(NC(=O)c2cccc3[nH]c(-c4cc(F)ccc4C(F)(F)F)nc23)c1` [Compound 379], for which the EC1.5 entry is reported as “A (EC1.5<1.0 uM)” and the “Fold Act. (percent maximum fold activation)” value is recorded as “A (Fold activation >200%)”.
As to `O=C(Nc1nc(CN2CCOCC2)cs1)c1cccc2[nH]c(-c3cccc(Cl)c3)nc12` [Compound 796], under setting [1], the EC1.5 result is listed as “B (EC1.5 1-25 uM)” and the “Fold Act. (percent maximum fold activation)” value is listed as “B (Fold Activation <200%)”.
Regarding `O=C(Nc1cccc(CN2CCOCC2)n1)c1cccc2[nH]c(-c3cccnc3)nc12` [Compound 850], under setting [1], the EC1.5 entry is on record as “A (EC1.5<1.0 uM)” and the “Fold Act. (percent maximum fold activation)” value is given as “A (Fold activation >200%)”.
Consider `O=C(Nc1ccccn1)c1cccc2[nH]c(-c3cc(F)cc(Cl)c3OCCN3CCOCC3)nc12` [Compound 544], for which the “Fold Act. (percent maximum fold activation)” value under setting [2] is recorded as “B (Fold Activation <200%)”. For the same compound, under setting [3], the EC1.5 was in the range of 1000 to 25000 nM.
On to `O=C(Nc1nccs1)c1cc(N2CCOCC2)cc2[nH]c(-c3cc(F)ccc3C(F)F)nc12` [Compound 768], for which, under setting [1], the EC1.5 entry is “A (EC1.5<1.0 uM)” and the “Fold Act. (percent maximum fold activation)” value is “A (Fold activation >200%)”.

Source of the values: patent US8846947B2, “Benzimidazoles and related analogs as sirtuin modulators” (GlaxoSmithKline LLC, priority 2008, dated 2014).
